According to US11839613B2, “Pyrimidine derivatives as PGE2 receptor modulators” (IDORSIA PHARMACEUTICALS LTD, priority 2017, dated 2023):

Legend:
[1] = target: PTGER2 (EP2) (Homo sapiens (Human), UniProt P43116); experiment: hEP2 b-arrestin assay (PathHunter HEK 293 PTGER2 b-arrestin cells); type: cell-based; settings: antagonistic activity, beta-arrestin assay; read-out: hEP2 b-arr IC50
Procedure: Plate is pre-incubated 15 minutes at 37° C. Then five microliters of PGE2 (final conc. 5 μM) are transferred into the assay plate. Plate is incubated 120 minutes at 37° C.
(each concentration is measured in duplicate)

[2] = target: PTGER4 (EP4) (Homo sapiens (Human), UniProt P35408); experiment: cell-based
PTGER4 (EP4), sequence (P35408 whole entry): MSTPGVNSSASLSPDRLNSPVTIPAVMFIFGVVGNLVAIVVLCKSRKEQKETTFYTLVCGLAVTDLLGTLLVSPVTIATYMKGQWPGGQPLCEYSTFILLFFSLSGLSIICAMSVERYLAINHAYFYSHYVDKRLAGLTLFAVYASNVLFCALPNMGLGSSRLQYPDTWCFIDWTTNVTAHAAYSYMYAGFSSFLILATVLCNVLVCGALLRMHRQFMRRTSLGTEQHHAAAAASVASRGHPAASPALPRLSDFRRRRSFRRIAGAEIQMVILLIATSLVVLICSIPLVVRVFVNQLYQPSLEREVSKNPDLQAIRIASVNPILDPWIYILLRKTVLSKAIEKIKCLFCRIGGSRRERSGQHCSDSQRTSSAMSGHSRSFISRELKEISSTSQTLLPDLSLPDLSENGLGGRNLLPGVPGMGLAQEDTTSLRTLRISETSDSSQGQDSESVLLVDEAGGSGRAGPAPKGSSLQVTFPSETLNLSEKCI

[3] = target: EP4 (Homo sapiens (Human), UniProt P35408); experiment: hEP4 cAMP assay (BT549 breast cancer cells, HTRF cAMP); type: cell-based; settings: antagonistic activity, PGE2 6 nM
EP4, sequence (P35408 whole entry): as above
Method in brief: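 cAMP accumulation quantified by HTRF competition between cellular cAMP and d2-labeled cAMP for cryptate anti-cAMP antibody. Cells: endogenously EP4-expressing BT549, buffer with 2 mM IBMX; 45 min RT compound preincubation preceded 30 min RT challenge with PGE2 at 6 nM final.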

[4] = target: EP2 (Homo sapiens (Human), UniProt P43116); experiment: hEP2 cAMP assay (SF295 glioblastoma cells, HTRF cAMP); type: cell-based; settings: antagonistic activity
EP2, sequence (P43116 whole entry): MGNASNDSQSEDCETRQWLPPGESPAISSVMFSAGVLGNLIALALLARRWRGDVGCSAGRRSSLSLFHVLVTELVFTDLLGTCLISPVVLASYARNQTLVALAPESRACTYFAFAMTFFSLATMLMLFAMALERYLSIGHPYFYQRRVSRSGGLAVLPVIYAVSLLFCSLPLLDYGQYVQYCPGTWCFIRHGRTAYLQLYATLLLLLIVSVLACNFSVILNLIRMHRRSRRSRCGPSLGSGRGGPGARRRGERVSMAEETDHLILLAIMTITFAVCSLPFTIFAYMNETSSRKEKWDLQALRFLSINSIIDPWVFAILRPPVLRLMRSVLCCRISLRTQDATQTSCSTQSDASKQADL
Method in brief: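 PGE2-driven cAMP accumulation was measured by HTRF in SF295 cells, which express endogenous EP2 only. Cells in assay buffer with 2 mM IBMX were pre-incubated 45 min at RT, then incubated 30 min at RT. Detection used competition between cellular cAMP and d2-cAMP for a cryptate anti-cAMP antibody.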

PTGER2 (EP2), sequence (P43116 whole entry): as above

SMILES	IC50 [1] [nM]	IC50 [2] [nM]	IC50 ([3]; BT549 cells) [nM]	IC50 [4] [nM]	IC50 [3] [nM]
CCOc1cc(-c2cc(NCCc3cc(F)c4sccc4c3)ncn2)ccc1-c1nnn[nH]1 [Example 452, {6-[3-Ethoxy-4-(1H-tetrazol-5-yl)-phenyl]-pyrimidin-4-yl}-[2-(7-fluoro-benzo[b]thiophen-5-yl)-ethyl]-amine]	103	21	18	371	
CCOc1nc(-c2cc(NCCc3ccc4ccccc4c3C)ncn2)sc1C(=O)O [Example 350, 4-Ethoxy-2-{6-[2-(1-methyl-naphthalen-2-yl)-ethylamino]-pyrimidin-4-yl}-thiazole-5-carboxylic acid]	83	21		51	10
CCOc1cc(-c2cc(NCCc3ccc4sccc4c3)ncn2)ccc1C(=O)O [Ex 155, 4-[6-(2-Benzo[b]thiophen-5-yl-ethylamino)-pyrimidin-4-yl]-2-ethoxy-benzoic acid]	232	301		161	151
CCOc1cc(-c2cc(NCCc3c(OC)cc4c(c3C)OCCO4)ncn2)ccc1C(=O)O [Example 395, 2-Ethoxy-4-{6-[2-(7-methoxy-5-methyl-2,3-dihydro-benzo[1,4]dioxin-6-yl)-ethylamino]-pyrimidin-4-yl}-benzoic acid]	4	98	128	5	
COc1cc2c(cc1CCNc1cc(-c3ccc(C(=O)O)c(SC)c3)ncn1)OCO2 [Ex 277, 4-{6-[2-(6-Methoxy-benzo[1,3]dioxol-5-yl)-ethylamino]-pyrimidin-4-yl}-2-methylsulfanyl-benzoic acid]	51	437		14	324
CCOc1cc(-c2cc(NCCc3c(OC)cc4occc4c3C)ncn2)ccc1CC(=O)O [Ex 157, (2-Ethoxy-4-{6-[2-(6-methoxy-4-methyl-benzofuran-5-yl)-ethylamino]-pyrimidin-4-yl}-phenyl)-acetic acid]	7	89		22	156
O=C(O)c1ccc(-c2cc(NCCc3ccc4sccc4c3)ncn2)cc1OC1CCC1 [Ex 125, 4-[6-(2-Benzo[b]thiophen-5-yl-ethylamino)-pyrimidin-4-yl]-2-cyclobutoxy-benzoic acid]	116	226		129	99
COc1cc2sccc2cc1CCNc1cc(-c2ccc(C(=O)O)cc2)ncn1 [Ex 276, 4-{6-[2-(6-Methoxy-benzo[b]thiophen-5-yl)-ethylamino]-pyrimidin-4-yl}-benzoic acid]	79	1820		47	474
O=C(O)c1cc2cc(-c3cc(NCCc4ccc5sccc5c4)ncn3)ccc2o1 [Ex 38, 5-[6-(2-Benzo[b]thiophen-5-yl-ethylamino)-pyrimidin-4-yl]-benzofuran-2-carboxylic acid]	226	123		210	28
COc1cc2ccoc2cc1CCNc1cc(-c2ccc(C(=O)O)c(OC3CCC3)c2)ncn1 [Ex 124, 2-Cyclobutoxy-4-{6-[2-(5-methoxy-benzofuran-6-yl)-ethylamino]-pyrimidin-4-yl}-benzoic acid]	113	215		95	99
CCOc1cc(-c2cc(NCCc3cc4c(cc3SC)OCCO4)ncn2)sc1C(=O)O [Ex 78, 3-Ethoxy-5-{6-[2-(7-methylsulfanyl-2,3-dihydro-benzo[1,4]dioxin-6-yl)-ethylamino]-pyrimidin-4-yl}-thiophene-2-carboxylic acid]	141	21		219	44
CCOc1cc(-c2cc(NCCc3cc(Cl)c4sccc4c3)ncn2)ccc1C(=O)O [Example 358, 4-{6-[2-(7-Chloro-benzo[b]thiophen-5-yl)-ethylamino]-pyrimidin-4-yl}-2-ethoxy-benzoic acid]	538	138		219	90
CCOc1cc(-c2cc(NCCc3c(OCC)cc4ccccc4c3C)ncn2)ccc1C(=O)O [Example 418, 2-Ethoxy-4-{6-[2-(3-ethoxy-1-methyl-naphthalen-2-yl)-ethylamino]-pyrimidin-4-yl}-benzoic acid]	10	54	148	45	
CCOc1cc2c(cc1CCNc1cc(-c3ccc(C(=O)O)c(SC)c3)ncn1)OCCO2 [Ex 137, 4-{6-[2-(7-Ethoxy-2,3-dihydro-benzo[1,4]dioxin-6-yl)-ethylamino]-pyrimidin-4-yl}-2-methylsulfanyl-benzoic acid]	14	124		4	120
CCOc1cc(-c2cc(NCCc3ccc4c(c3)OCO4)ncn2)sc1C(=O)O [Ex 111, 5-[6-(2-Benzo[1,3]dioxol-5-yl-ethylamino)-pyrimidin-4-yl]-3-ethoxy-thiophene-2-carboxylic acid]	115	89		49	81
CCOc1cc(-c2cc(NCCc3cc4c(cc3OC)OCCO4)ncn2)ccc1OC(C)C(=O)O (stereo not shown) [Ex 201]	83	111		133	229
CCOc1cc(-c2cc(NCCc3cc4ccccc4cc3OC)ncn2)sc1C(=O)O [Ex 9, 3-Ethoxy-5-{6-[2-(3-methoxy-naphthalen-2-yl)-ethylamino]-pyrimidin-4-yl}-thiophene-2-carboxylic acid]	59	6		67	6
CSc1cc(-c2cc(NCCc3ccc4sccc4c3)ncn2)ccc1C(=O)O [Ex 132, 4-[6-(2-Benzo[b]thiophen-5-yl-ethylamino)-pyrimidin-4-yl]-2-methylsulfanyl-benzoic acid]	82	161		66	107
CCOc1cc(-c2cc(NCCc3c(OC)cc4occc4c3C)ncn2)sc1C(=O)O [Ex 8, 3-Ethoxy-5-{6-[2-(6-methoxy-4-methyl-benzofuran-5-yl)-ethylamino]-pyrimidin-4-yl}-thiophene-2-carboxylic acid]	5	22		1	6
CCCCOc1cc(-c2cc(NCCc3ccc4ccccc4c3C)ncn2)ccc1C(=O)O [Ex 169, 2-Butoxy-4-{6-[2-(1-methyl-naphthalen-2-yl)-ethylamino]-pyrimidin-4-yl}-benzoic acid]	141	269		125	168
CCOc1cc(-c2cc(NCCc3cc4c(cc3F)OCCN4C)ncn2)sc1C(=O)O [Ex 104, 3-Ethoxy-5-{6-[2-(7-fluoro-4-methyl-3,4-dihydro-2H-benzo[1,4]oxazin-6-yl)-ethylamino]-pyrimidin-4-yl}-thiophene-2-carboxylic acid]	12	91		13	71
COc1cc2c(cc1CCNc1cc(-c3ccc4c(C(=O)O)coc4c3)ncn1)OCCO2 [Ex 199, 6-{6-[2-(7-Methoxy-2,3-dihydro-benzo[1,4]dioxin-6-yl)-ethylamino]-pyrimidin-4-yl}-benzofuran-3-carboxylic acid]	177	2160		62	138
